SMILES strings stand for the structures. Counter-ions that a name gives are not always drawn.

Assay [1] addresses baculovirus-expressed JAK2 kinase (Homo sapiens, UniProt O60674). The assay is described as follows: biochemical. Conditions: 0.2 μM ATP; read-out: JAK2 Potency. Summed up: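 Time-resolved fluorescence kinase assay using 15 ng/mL baculovirus-expressed JAK2 on Neutravidin-captured biotinylated 15-mer peptide substrate, reaction 20 min at room temperature. IC50 from percent inhibition versus log concentration, sigmoidal variable-slope fit.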

The target of assay [2] is baculovirus-expressed ALK (Homo sapiens, UniProt Q9UM73). The assay is described as follows: ALK kinase inhibition, TRF/ELISA. Conditions: read-out: ALK Potency. Format: biochemical. Summed up: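 Plates were coated with GST-PLC-γ substrate (10 μg/mL) and the reaction was started with 30 ng/mL ALK, running 15 min at 37° C. Phosphotyrosine was detected by time-resolved fluorescence with Eu-labeled PT66 antibody. IC50s came from variable-slope sigmoidal fits of percent inhibition versus log concentration.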
Chain of baculovirus-expressed ALK (Q9UM73 19-1620): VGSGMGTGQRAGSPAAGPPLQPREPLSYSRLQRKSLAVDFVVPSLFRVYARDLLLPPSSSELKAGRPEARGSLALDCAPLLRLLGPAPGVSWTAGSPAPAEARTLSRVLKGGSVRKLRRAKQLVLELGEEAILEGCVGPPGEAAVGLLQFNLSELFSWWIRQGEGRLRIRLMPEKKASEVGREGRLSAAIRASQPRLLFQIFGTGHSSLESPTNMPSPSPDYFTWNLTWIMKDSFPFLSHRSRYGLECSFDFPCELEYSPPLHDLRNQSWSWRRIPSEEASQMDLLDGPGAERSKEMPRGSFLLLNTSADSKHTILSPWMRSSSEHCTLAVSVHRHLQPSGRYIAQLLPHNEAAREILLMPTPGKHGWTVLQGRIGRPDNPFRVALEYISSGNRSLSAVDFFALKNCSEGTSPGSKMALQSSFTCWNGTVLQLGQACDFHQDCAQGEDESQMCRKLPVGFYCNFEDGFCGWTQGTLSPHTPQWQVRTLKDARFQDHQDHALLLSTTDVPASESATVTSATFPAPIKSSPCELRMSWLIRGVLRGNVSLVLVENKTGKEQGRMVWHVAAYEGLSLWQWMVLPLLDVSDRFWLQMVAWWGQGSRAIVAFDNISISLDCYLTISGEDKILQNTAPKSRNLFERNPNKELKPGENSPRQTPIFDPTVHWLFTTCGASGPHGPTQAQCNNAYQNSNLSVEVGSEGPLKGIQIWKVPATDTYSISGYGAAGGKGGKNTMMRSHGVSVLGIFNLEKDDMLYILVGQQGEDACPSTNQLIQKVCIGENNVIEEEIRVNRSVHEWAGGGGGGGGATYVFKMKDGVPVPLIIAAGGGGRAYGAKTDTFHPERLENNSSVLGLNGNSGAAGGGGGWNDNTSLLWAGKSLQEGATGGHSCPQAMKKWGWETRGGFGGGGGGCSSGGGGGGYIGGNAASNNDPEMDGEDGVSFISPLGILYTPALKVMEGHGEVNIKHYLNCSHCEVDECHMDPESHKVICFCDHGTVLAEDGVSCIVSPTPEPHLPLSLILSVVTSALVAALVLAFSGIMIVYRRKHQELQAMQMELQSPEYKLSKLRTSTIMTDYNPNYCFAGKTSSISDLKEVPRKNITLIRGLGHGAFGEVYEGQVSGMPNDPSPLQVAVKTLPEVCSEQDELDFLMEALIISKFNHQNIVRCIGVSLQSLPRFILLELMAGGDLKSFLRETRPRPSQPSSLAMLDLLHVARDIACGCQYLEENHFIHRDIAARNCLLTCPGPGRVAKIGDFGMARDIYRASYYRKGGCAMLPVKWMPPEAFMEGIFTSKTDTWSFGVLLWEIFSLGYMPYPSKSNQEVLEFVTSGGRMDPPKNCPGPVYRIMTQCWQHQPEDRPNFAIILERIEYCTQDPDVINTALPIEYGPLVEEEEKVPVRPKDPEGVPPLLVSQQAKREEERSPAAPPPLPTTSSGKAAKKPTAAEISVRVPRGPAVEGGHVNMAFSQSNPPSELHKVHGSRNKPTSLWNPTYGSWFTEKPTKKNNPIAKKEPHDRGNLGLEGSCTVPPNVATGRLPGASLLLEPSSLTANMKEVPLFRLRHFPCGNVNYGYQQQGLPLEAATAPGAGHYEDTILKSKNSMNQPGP
Background: An ELISA detects its analyte on a solid surface through an enzyme-linked reagent.

Chain of baculovirus-expressed JAK2 kinase (O60674 whole entry): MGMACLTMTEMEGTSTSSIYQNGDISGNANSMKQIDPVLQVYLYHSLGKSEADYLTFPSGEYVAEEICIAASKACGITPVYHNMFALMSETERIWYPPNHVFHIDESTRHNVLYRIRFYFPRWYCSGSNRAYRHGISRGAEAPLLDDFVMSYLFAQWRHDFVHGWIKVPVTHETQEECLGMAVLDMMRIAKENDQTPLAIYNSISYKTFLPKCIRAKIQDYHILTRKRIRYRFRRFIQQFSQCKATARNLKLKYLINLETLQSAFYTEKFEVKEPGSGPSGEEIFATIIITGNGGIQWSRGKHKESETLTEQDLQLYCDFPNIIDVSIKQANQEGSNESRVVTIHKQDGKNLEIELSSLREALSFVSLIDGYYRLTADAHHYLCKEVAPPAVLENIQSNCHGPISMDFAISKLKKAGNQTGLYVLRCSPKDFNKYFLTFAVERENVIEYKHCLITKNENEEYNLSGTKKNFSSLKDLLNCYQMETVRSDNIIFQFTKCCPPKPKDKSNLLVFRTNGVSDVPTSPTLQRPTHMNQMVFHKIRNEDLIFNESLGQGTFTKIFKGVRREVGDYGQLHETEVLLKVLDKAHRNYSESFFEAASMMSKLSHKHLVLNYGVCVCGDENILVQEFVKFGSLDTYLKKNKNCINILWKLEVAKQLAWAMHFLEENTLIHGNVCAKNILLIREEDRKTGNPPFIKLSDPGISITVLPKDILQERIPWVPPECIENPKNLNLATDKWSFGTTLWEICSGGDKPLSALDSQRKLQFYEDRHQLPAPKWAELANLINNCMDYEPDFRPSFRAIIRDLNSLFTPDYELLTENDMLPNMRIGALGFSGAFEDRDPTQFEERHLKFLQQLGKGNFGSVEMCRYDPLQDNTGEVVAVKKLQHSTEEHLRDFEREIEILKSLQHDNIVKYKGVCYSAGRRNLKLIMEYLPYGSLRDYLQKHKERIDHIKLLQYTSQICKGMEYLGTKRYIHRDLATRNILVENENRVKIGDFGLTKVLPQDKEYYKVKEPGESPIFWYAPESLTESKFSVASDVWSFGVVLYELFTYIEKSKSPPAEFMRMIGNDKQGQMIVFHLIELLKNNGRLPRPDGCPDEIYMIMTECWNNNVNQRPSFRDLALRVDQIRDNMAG

As to `CC(C)NC(=O)[C@@H]1[C@H](Nc2c(Cl)cnc3[nH]c(-c4sc(N5CC[C@@H](O)C5)nc4Cl)nc23)[C@H]2C=C[C@@H]1C2` [Compound CLXIX, (1S,2S,3R,4R)-3-{6-Chloro-2-[4-chloro-2-((R)-3-hydroxy-pyrrolidin-1-yl)-thiazol-5-yl]-1H-imidazo[4,5-b]pyridin-7-ylamino}-bicyclo[2.2.1]hept-5-ene-2-carboxylic acid isopropylamide], the IC50 lay within 1000 to 10000 nM in assay [1] and 100 to 1000 nM in assay [2].

For `NC(=O)[C@@H]1[C@H](Nc2c(Cl)cnc3[nH]c(-c4cccc(F)c4)nc23)[C@H]2C=C[C@@H]1C2` [Compound CXXVIII], the IC50 in assay [1] was < 100 nM; in assay [2], 100 to 1000 nM.

As to `NC(=O)[C@@H]1[C@H](Nc2c(Br)cnc3[nH]c(-c4cccc(Cl)c4)nc23)[C@H]2C=C[C@@H]1C2` [Compound CXLII, (1S,2S,3R,4R)-3-[6-Bromo-2-(3-chloro-phenyl)-3H-imidazo[4,5-b]pyridin-7-ylamino]-bicyclo[2.2.1]hept-5-ene-2-carboxylic acid amide], the results for the IC50 in assay [1] and in assay [2] were < 100 nM and 100 to 1000 nM, respectively.

Take `NC(=O)[C@@H]1[C@H](Nc2c(Br)cnc3[nH]c(-c4sc(N5CC[C@@H](O)C5)nc4Cl)nc23)[C@H]2C=C[C@@H]1C2` [Compound CLXXI, (1S,2S,3R,4R)-3-{6-Bromo-2-[4-chloro-2-((R)-3-hydroxy-pyrrolidin-1-yl)-thiazol-5-yl]-3H-imidazo[4,5-b]pyridin-7-ylamino}-bicyclo[2.2.1]hept-5-ene-2-carboxylic acid amide]: the IC50 in assay [1] and in assay [2] was < 100 nM each time.

Consider `Cc1nn(C)c(C)c1-c1nc2c(N[C@H]3[C@@H](C(N)=O)[C@@H]4C=C[C@H]3C4)c(Cl)cnc2[nH]1` [Compound CLI, (1S,2S,3R,4R)-3-[6-Chloro-2-(1,3,5-trimethyl-1H-pyrazol-4-yl)-3H-imidazo[4,5-b]pyridin-7-ylamino]-bicyclo[2.2.1]hept-5-ene-2-carboxylic acid amide], for which the IC50 in assay [1] and in assay [2] was < 100 nM throughout.

Take `CC(C)(C)OC(=O)N1CCC(n2cc(-c3nc4c(N[C@H]5[C@@H](C(N)=O)[C@@H]6C=C[C@H]5C6)c(Cl)cnc4[nH]3)cn2)CC1` [Compound L, 4-{4-[7-((1R,2R,3S,4S)-3-Carbamoyl-bicyclo[2.2.1]hept-5-en-2-ylamino)-6-chloro-3H-imidazo[4,5-b]pyridine-2-yl]-pyrazol-1-yl}-piperidine-1-carboxylic acid tert-butyl ester]: the IC50 in assay [1] is < 100 nM; in assay [2] it was 100 to 1000 nM.

As to `NC(=O)[C@@H]1[C@H](Nc2c(Cl)cnc3[nH]c(-c4ccc(N5CCOCC5)cc4)nc23)[C@H]2CC[C@@H]1O2` [Compound CCIV, (1S,2R,3S,4R)-3-(6-chloro-2-(4-morpholinophenyl)-3H-imidazo[4,5-b]pyridin-7-ylamino)-7-oxabicyclo[2.2.1]heptane-2-carboxamide], the IC50 is < 100 nM in assay [1] and 1000 to 10000 nM in assay [2].

`NC(=O)CN1CCC(n2cc(-c3nc4c(N[C@H]5[C@@H](C(N)=O)[C@@H]6C=C[C@H]5C6)c(Cl)cnc4[nH]3)cn2)CC1` [Compound LXVI, (1S,2S,3R,4R)-3-{2-[1-(1-Carbamoylmethyl-piperidin-4-yl)-1H-pyrazol-4-yl]-6-chloro-3H-imidazo[4,5-b]pyridine-7-ylamino}-bicyclo[2.2.1]hept-5-ene-2-carboxylic acid amide, trifluoroacetic acid salt]: the IC50 is < 100 nM in assay [1] and 100 to 1000 nM in assay [2].

With `NC(=O)[C@@H]1[C@H](Nc2c(Cl)cnc3[nH]c(-c4ccc(N5CCOCC5)cc4Cl)nc23)[C@H]2C=C[C@@H]1C2` [Compound CXX, (1S,2S,3R,4R)-3-[6-Chloro-2-(2-chloro-4-morpholin-4-yl-phenyl)-3H-imidazo[4,5-b]pyridin-7-ylamino]-bicyclo[2.2.1]hept-5-ene-2-carboxylic acid amide], the IC50 in assay [1] and in assay [2] was < 100 nM each time.

Regarding `CN1CCN(C(=O)c2ccc(-c3nc4c(N[C@H]5[C@@H](C(N)=O)[C@@H]6C=C[C@H]5C6)c(Cl)cnc4[nH]3)cc2)CC1` [Compound CCXXII, (1S,2S,3R,4R)-3-(6-chloro-2-(4-(4-methylpiperazine-1-carbonyl)phenyl)-3H-imidazo[4,5-b]pyridin-7-ylamino)bicyclo[2.2.1]hept-5-ene-2-carboxamide], the IC50 in assay [1] and in assay [2] was < 100 nM each time.

Take `NC(=O)[C@@H]1[C@H](Nc2c(Br)cnc3[nH]c(-c4ccc(N5CCOCC5)cc4Cl)nc23)[C@H]2C=C[C@@H]1C2` [Compound CXXXIV, (1S,2S,3R,4R)-3-[6-Bromo-2-(2-chloro-4-morpholin-4-yl-phenyl)-3H-imidazo[4,5-b]pyridin-7-ylamino]-bicyclo[2.2.1]hept-5-ene-2-carboxylic acid amide]: the IC50 in assay [1] and in assay [2] was < 100 nM each time.

With `NC(=O)[C@@H]1[C@H](Nc2c(Cl)cnc3[nH]c(-c4cnc(N5CCOCC5)s4)nc23)[C@H]2C=C[C@@H]1C2` [Compound CCX, (1S,2S,3R,4R)-3-(6-chloro-2-(2-morpholinothiazol-5-yl)-3H-imidazo[4,5-b]pyridin-7-ylamino)bicyclo[2.2.1]hept-5-ene-2-carboxamide], the IC50 in assay [1] and in assay [2] was < 100 nM in each case.

Regarding `NC(=O)[C@@H]1[C@H](Nc2c(Cl)cnc3[nH]c(-c4ccccc4Cl)nc23)[C@H]2C=C[C@@H]1C2` [Compound CXLVIII, (1S,2S,3R,4R)-3-[6-Chloro-2-(2-chloro-phenyl)-3H-imidazo[4,5-b]pyridin-7-ylamino]-bicyclo[2.2.1]hept-5-ene-2-carboxylic acid amide], the IC50 in assay [1] was < 100 nM; in assay [2], 100 to 1000 nM.

In the case of `COc1cc(CN2CC[C@@H](O)C2)ccc1-c1nc2c(N[C@H]3[C@@H](C(N)=O)[C@@H]4C=C[C@H]3C4)c(Cl)cnc2[nH]1` [Compound XLVII, (1S,2S,3R,4R)-3-(6-Chloro-2-[4-((R)-3-hydroxy-pyrrolidin-1-ylmethyl)-2-methoxyphenyl]-3H-imidazo[4,5-b]pyridine-7-ylamino)-bicyclo[2.2.1]hept-5-ene-2-carboxylic acid amide], the IC50 in assay [1] and in assay [2] was < 100 nM throughout.

As to `NC(=O)[C@@H]1[C@H](Nc2c(Cl)cnc3[nH]c(-c4cccc(-n5cccn5)c4)nc23)[C@H]2C=C[C@@H]1C2` [Compound CXXV, (1S,2S,3R,4R)-3-[6-Chloro-2-(3-pyrazol-1-yl-phenyl)-3H-imidazo[4,5-b]pyridin-7-ylamino]-bicyclo[2.2.1]hept-5-ene-2-carboxylic acid amide], the IC50 is < 100 nM in assay [1] and 1000 to 10000 nM in assay [2].

Regarding `NC(=O)[C@@H]1[C@H](Nc2c(Cl)cnc3[nH]c(-c4sc(N5CCOCC5)nc4Cl)nc23)[C@H]2C=C[C@@H]1C2` [Compound CLX, (1S,2S,3R,4R)-3-[6-Chloro-2-(4-chloro-2-morpholin-4-yl-thiazol-5-yl)-3H-imidazo[4,5-b]pyridin-7-ylamino]-bicyclo[2.2.1]hept-5-ene-2-carboxylic acid amide], the IC50 in assay [1] and in assay [2] was < 100 nM each time.

Take `COc1cc(N2CCN(C)CC2)ccc1-c1nc2c(N[C@H]3[C@@H](C(=O)N(C)C)[C@@H]4C=C[C@H]3C4)c(Cl)cnc2[nH]1` [Compound CXCVII, (1S,2S,3R,4R)-3-(6-chloro-2-(2-methoxy-4-(4-methylpiperazin-1-yl)phenyl)-3H-imidazo[4,5-b]pyridin-7-ylamino)-N,N-dimethylbicyclo[2.2.1]hept-5-ene-2-carboxamide]: the IC50 in assay [1] was 100 to 1000 nM; in assay [2] it was < 100 nM.

Regarding `CN(C)c1cccc(-c2nc3c(N[C@@H]4[C@H](C(N)=O)[C@H]5C=C[C@@H]4C5)c(Cl)cnc3[nH]2)c1` [Compound XXIV, (1R,2R,3S,4S)-3-[6-Chloro-2-(3-dimethylamino-phenyl)-3H-imidazo[4,5-b]pyridine-7-ylamino]-bicyclo[2.2.1]hept-5-ene-2-carboxylic acid amide], the IC50 in assay [1] is 100 to 1000 nM; in assay [2], > 10000 nM.

Take `COc1cc(CN(C)C)ccc1-c1nc2c(N[C@H]3[C@@H](C(N)=O)[C@@H]4C=C[C@H]3C4)c(Cl)cnc2[nH]1` [Compound XLVI, (1S,2S,3R,4R)-3-[6-Chloro-2-(4-dimethylaminomethyl-2-methoxyphenyl)-3H-imidazo[4,5-b]pyridine-7-ylamino)-bicyclo[2.2.1]hept-5-ene-2-carboxylic acid amide, trifluoroacetic acid salt]: the IC50 in assay [1] and in assay [2] was < 100 nM in each case.

Regarding `CN1CCN(c2ncc(-c3nc4c(N[C@H]5[C@@H](C(N)=O)[C@@H]6C=C[C@H]5C6)c(Cl)cnc4[nH]3)s2)CC1` [Compound CCXI, (1S,2S,3R,4R)-3-(6-chloro-2-(2-(4-methylpiperazin-1-yl)thiazol-5-yl)-3H-imidazo[4,5-b]pyridin-7-ylamino)bicyclo[2.2.1]hept-5-ene-2-carboxamide], the IC50 in assay [1] and in assay [2] was < 100 nM in each case.

For the compound `CN(C)c1nc(Cl)c(-c2nc3c(N[C@H]4[C@@H](C(N)=O)[C@@H]5C=C[C@H]4C5)c(Cl)cnc3[nH]2)s1` [Compound CLIV, (1S,2S,3R,4R)-3-[6-Chloro-2-(4-chloro-2-dimethylamino-thiazol-5-yl)-3H-imidazo[4,5-b]pyridin-7-ylamino]-bicyclo[2.2.1]hept-5-ene-2-carboxylic acid amide], the IC50 in assay [1] and in assay [2] was < 100 nM in each case.

Turning to `COc1cc(CN2CCOCC2)ccc1-c1nc2c(N[C@@H]3CCCC[C@H]3NS(C)(=O)=O)c(Cl)cnc2[nH]1` [Compound LXX, N-{(1R,2R)-2-[6-Chloro-2-(2-methoxy-4-morpholin-4-ylmethyl-phenyl)-3H-imidazo[4,5-b]pyridine-7-ylamino]-cyclohexyl}-methanesulfonamide], the results for the IC50 in assay [1] and in assay [2] were 1000 to 10000 nM and < 100 nM, respectively.

Values taken from patent publication US9238656B2, “Imidazo[4,5-b]pyridine derivatives as ALK and JAK modulators for the treatment of proliferative disorders” (priority 2012, dated 2016).
